Laboratory results as given in patent publication US20260049092A1, “ANTIBACTERIAL COMPOUNDS” (Blacksmith Medicines, Inc., priority 2022, published 2026).
In brackets after ≈: the same amount, converted by molar mass.

Legend:
Assay in all cases: Bacterial susceptibility testing (MIC, broth microdilution)
Assay type in all cases: cell-based
E. coli ATCC25922 = settings: cation adjusted Mueller-Hinton Broth, 35° C., 18-24 h; for MIC: Escherichia coli, ATCC25922, broth microdilution, read-out: E. coli ATCC25922 MIC
In short: (§1)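 CLSI broth microdilution was run in cation-adjusted Mueller-Hinton broth with an inoculum of 3×10^5–7×10^5 CFU/mL and 2-fold compound dilutions. Plates were incubated in ambient air at 35° C for 18-24 h. MIC was the lowest concentration preventing visible growth (OD600 nm<0.05).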

K. pneumoniae ATCC13883 = settings: cation adjusted Mueller-Hinton Broth, 35° C., 18-24 h; for MIC: Klebsiella pneumoniae, ATCC13883, broth microdilution, read-out: K. pneumoniae ATCC13883 MIC
In short: as §1

P. aeruginosa ATCC27853 = settings: cation adjusted Mueller-Hinton Broth, 35° C., 18-24 h; for MIC: Pseudomonas aeruginosa, ATCC27853, broth microdilution, read-out: P. aeruginosa ATCC27853 MIC
In short: as §1

P. aeruginosa PAO1 = settings: broth microdilution, cation adjusted Mueller-Hinton Broth, 35° C., 18-24 h; for MIC: Pseudomonas aeruginosa, PAO1, read-out: P. aeruginosa PAO1 MIC
In short: as §1

| MIC (E. coli ATCC25922) | MIC (K. pneumoniae ATCC13883) | MIC (P. aeruginosa ATCC27853) | MIC (P. aeruginosa PAO1) | E. coli ATCC25922 MIC (E. coli ATCC25922; broth microdilution) | K. pneumoniae ATCC13883 MIC (K. pneumoniae ATCC13883; broth microdilution) | P. aeruginosa ATCC27853 MIC (P. aeruginosa ATCC27853; broth microdilution) | P. aeruginosa PAO1 MIC (P. aeruginosa PAO1) | Structure (SMILES) |
| --- | --- | --- | --- | --- | --- | --- | --- | --- |
| 1 µg/mL (≈ 2.39 µM) | 1 µg/mL (≈ 2.39 µM) | 8 µg/mL (≈ 19.1 µM) | 2 µg/mL (≈ 4.78 µM) | – | – | – | – | C[C@H](O)c1nccn1[C@@H](C#Cc1ccc(-c2ccc([C@H]3COC[C@@H]3O)cc2)cc1)CO (single isomer, unassigned) [Compound 115] |
| 0.5 µg/mL (≈ 1.19 µM) | 2 µg/mL (≈ 4.78 µM) | 4 µg/mL (≈ 9.56 µM) | 1 µg/mL (≈ 2.39 µM) | – | – | – | – | C[C@H](O)c1nccn1[C@@H](C#Cc1ccc(-c2ccc([C@@H]3COC[C@H]3O)cc2)cc1)CO (single isomer, unassigned) [Compound 116] |
| 2 µg/mL (≈ 4.46 µM) | 2 µg/mL (≈ 4.46 µM) | 4 µg/mL (≈ 8.92 µM) | 2 µg/mL (≈ 4.46 µM) | – | – | – | – | C[C@H](O)c1nccn1[C@@H](C#Cc1ccc(-c2ccc(CO[C@@H]3COC[C@H]3O)cc2)cc1)CO (single isomer, unassigned) [Compound 123] |
| – | – | – | – | 1 µg/mL | 2 µg/mL | 8 µg/mL | 2 µg/mL | CO[C@@H]1COC[C@H]1Oc1ccc(-c2ccc(C#C[C@@H](CO)n3ccnc3[C@H](C)O)cc2)cc1 (single isomer, unassigned) [Compound 125] |
| 0.5 µg/mL (≈ 1.11 µM) | 1 µg/mL (≈ 2.23 µM) | 4 µg/mL (≈ 8.92 µM) | 2 µg/mL (≈ 4.46 µM) | – | – | – | – | CO[C@@H]1COC[C@H]1Oc1ccc(-c2ccc(C#C[C@@H](CO)n3ccnc3[C@H](C)O)cc2)cc1 (single isomer, unassigned) [Compound 126] |
| 1 µg/mL (≈ 2.66 µM) | 8 µg/mL (≈ 21.3 µM) | 8 µg/mL (≈ 21.3 µM) | 4 µg/mL (≈ 10.6 µM) | – | – | – | – | C[C@H](O)c1ccc(-c2ccc(C#C[C@@H](CO)n3ccnc3[C@H](C)O)cc2)cc1 (single isomer, unassigned) [Compound 134] |
| 4 µg/mL (≈ 9.91 µM) | 4 µg/mL (≈ 9.91 µM) | 8 µg/mL (≈ 19.8 µM) | 2 µg/mL (≈ 4.96 µM) | – | – | – | – | CC(=O)NCc1ccc(-c2ccc(C#C[C@@H](CO)n3ccnc3[C@H](C)O)cc2)cc1 (single isomer, unassigned) [Compound 143] |
| 1 µg/mL (≈ 2.2 µM) | 2 µg/mL (≈ 4.39 µM) | 4 µg/mL (≈ 8.78 µM) | 2 µg/mL (≈ 4.39 µM) | – | – | – | – | C[C@H](O)c1nccn1[C@@H](C#Cc1ccc(-c2ccc(NC3CC(NCC#N)C3)cc2)cc1)CO (stereo partly drawn) [Compound 68, 2-((3-((4′-((S)-4-hydroxy-3-(2-((S)-1-hydroxyethyl)-1H-imidazol-1-yl)but-1-yn-1-yl)-[1,1′-biphenyl]-4-yl)amino)cyclobutyl)amino) acetonitrile] |
| 2 µg/mL (≈ 4.61 µM) | 4 µg/mL (≈ 9.23 µM) | 4 µg/mL (≈ 9.23 µM) | 4 µg/mL (≈ 9.23 µM) | – | – | – | – | C[C@H](O)c1nccn1[C@@H](C#Cc1ccc(-c2ccc(N[C@H]3COC[C@@H]3O)cc2)cc1)CO [Compound 71, (3R,4S)-4-((4′-((S)-4-hydroxy-3-(2-((S)-1-hydroxyethyl)-1H-imidazol-1-yl)but-1-yn-1-yl)-[1,1′-biphenyl]-4-yl)amino)tetrahydrofuran-3-ol] |
| 1 µg/mL (≈ 2.23 µM) | 2 µg/mL (≈ 4.46 µM) | 8 µg/mL (≈ 17.8 µM) | 2 µg/mL (≈ 4.46 µM) | – | – | – | – | C[C@H](O)c1nccn1[C@@H](C#Cc1ccc(-c2ccc(O[C@@H]3CCOC[C@H]3O)cc2)cc1)CO [Compound 72, (3R,4R)-4-((4′-((S)-4-hydroxy-3-(2-((S)-1-hydroxyethyl)-1H-imidazol-1-yl)but-1-yn-1-yl)-[1,1′-biphenyl]-4-yl)oxy)tetrahydro-2H-pyran-3-ol] |
| 2 µg/mL (≈ 4.46 µM) | 2 µg/mL (≈ 4.46 µM) | 8 µg/mL (≈ 17.8 µM) | 2 µg/mL (≈ 4.46 µM) | – | – | – | – | C[C@H](O)c1nccn1[C@@H](C#Cc1ccc(-c2ccc(O[C@H]3CCOC[C@@H]3O)cc2)cc1)CO [Compound 73, (3S,4S)-4-((4′-((S)-4-hydroxy-3-(2-((S)-1-hydroxyethyl)-1H-imidazol-1-yl)but-1-yn-1-yl)-[1,1′-biphenyl]-4-yl)oxy)tetrahydro-2H-pyran-3-ol] |
| 1 µg/mL (≈ 2.32 µM) | 4 µg/mL (≈ 9.27 µM) | 4 µg/mL (≈ 9.27 µM) | 4 µg/mL (≈ 9.27 µM) | – | – | – | – | C[C@H](O)c1nccn1[C@@H](C#Cc1ccc(-c2ccc(N[C@@H]3CCC[C@H]3O)cc2)cc1)CO [Compound 78, (1R,2R)-2-((4′-((S)-4-hydroxy-3-(2-((S)-1-hydroxyethyl)-1H-imidazol-1-yl)but-1-yn-1-yl)-[1,1′-biphenyl]-4-yl)amino)cyclopentan-1-ol] |
